Data published in patent US11051516B2, “Antimicrobial sanitizer compositions and their use” (GFS CORPORATION AUS PTY LTD, priority 2014, dated 2021).

Tested on: Escherichia coli K12 NCTC 10538
Experiment: Hygienic Handrub test BS EN 1500:2013 on human volunteers' hands
Assay type: in vivo
Procedure: The composition of Example 2 was tested for compliance with requirements for chemical disinfectants and antiseptics in accordance with European Standard BS EN 1500:2013 Chemical Disinfectants and Antiseptics—Hygienic Handrub—Test Method and Requirements. The test organism was Escherichia coli K12 NCTC 10538 which was obtained as a freeze dried ampoule and was reconstituted using Tryptone Soy Broth and incubated to achieve a concentration of 2×10^9 Cfu/mL. The reference standard was propan-2-ol 60% v/v solution in sterile water. There were no deviations from the standard test method.
Human volunteer's hands were washed for 1 minute with diluted soft soap (5 mL), rinsed in running water and dried with a paper towel for at least 30 seconds. The hands were immersed up to the mid-metacarpals for five seconds and the liquid was allowed to drain back into the container for a maximum of 30 seconds before allowing to air dry for three minutes.
The reference standard (3.0 mL) was applied and rubbed for 30 seconds. This was repeated with a second portion of reference standard (3.0 mL) and rubbing for a further 30 seconds. This procedure was repeated for 20 volunteers.
This protocol was repeated on 20 volunteers using the composition of Example 2.
The protocol of Example 16 was repeated for the composition of Example 4.

Structure (SMILES): CC(C)O [reference standard, propan-2-ol]
- Mean Log Reduction Factor (Example 16, 20 volunteers, 2 x 3.0 mL, rubbed 30 seconds each): 3.89
- Mean Log Reduction Factor (Example 17, protocol of Example 16 repeated): 3.90
